Assay results reported in patent publication US7893074B2, “2, 4-pyrimidinediamines useful in the treatment of neoplastic diseases, inflammatory and immune system disorders” (Novartis AG, priority 2003, dated 2011).
Read-outs that look alike come from different tables or passages of the source.

Tests used:
[1] = system: Mouse mammary carcinoma 4T1 cells; assay: Anchorage-independent tumor cell growth assay; assay type: cell-based
Experimental: Cells are cultured for 2 h and inhibitors are added at various concentrations in a final concentration of 0.1% DMSO. After 48 h, cell growth is assayed with the cell counting kit-8 (Wako Pure Chemical), which uses a water soluble tetrazolium salt WST8. Twenty μL of the reagent is added into each well and cells are further cultured for 2 h. The optical density is measured at 450 nm.

FAK = FAK (Mus musculus, UniProt P34152); assay: Phos IC50 (phosphorylation); assay type: cell-based
Chain of FAK (P34152 2-1052): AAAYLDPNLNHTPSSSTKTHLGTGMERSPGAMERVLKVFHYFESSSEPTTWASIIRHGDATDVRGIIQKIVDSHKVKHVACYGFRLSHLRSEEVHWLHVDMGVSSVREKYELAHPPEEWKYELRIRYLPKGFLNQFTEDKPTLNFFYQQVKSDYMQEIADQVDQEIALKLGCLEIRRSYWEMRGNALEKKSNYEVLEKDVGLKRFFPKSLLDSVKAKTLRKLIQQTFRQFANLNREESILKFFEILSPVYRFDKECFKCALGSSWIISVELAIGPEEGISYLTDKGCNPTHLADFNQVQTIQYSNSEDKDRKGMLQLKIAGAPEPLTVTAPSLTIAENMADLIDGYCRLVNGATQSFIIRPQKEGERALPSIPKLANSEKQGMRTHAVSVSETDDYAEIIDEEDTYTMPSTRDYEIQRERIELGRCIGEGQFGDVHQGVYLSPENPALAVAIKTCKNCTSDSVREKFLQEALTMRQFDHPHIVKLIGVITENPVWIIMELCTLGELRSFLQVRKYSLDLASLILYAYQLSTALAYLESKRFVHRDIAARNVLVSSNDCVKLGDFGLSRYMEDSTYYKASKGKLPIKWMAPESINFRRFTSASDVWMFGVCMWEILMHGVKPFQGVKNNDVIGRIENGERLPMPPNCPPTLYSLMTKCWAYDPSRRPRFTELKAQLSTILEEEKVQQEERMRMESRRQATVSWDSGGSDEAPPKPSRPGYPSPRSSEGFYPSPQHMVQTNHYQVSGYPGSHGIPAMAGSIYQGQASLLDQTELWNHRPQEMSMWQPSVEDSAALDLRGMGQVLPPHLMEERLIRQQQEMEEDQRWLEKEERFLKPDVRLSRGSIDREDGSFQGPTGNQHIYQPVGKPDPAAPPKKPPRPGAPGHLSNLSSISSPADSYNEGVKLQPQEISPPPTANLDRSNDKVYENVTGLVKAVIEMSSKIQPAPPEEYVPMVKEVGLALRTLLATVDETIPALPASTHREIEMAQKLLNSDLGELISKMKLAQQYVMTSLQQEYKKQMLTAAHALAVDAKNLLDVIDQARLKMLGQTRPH

[2] = target: Focal Adhesion Kinase (FAK) (Homo sapiens, UniProt Q05397); assay: FAK assay system (Focal Adhesion Kinase inhibition); assay type: biochemical; conditions: read-out: FAK IC50
Chain of Focal Adhesion Kinase (FAK) (Q05397 384-706): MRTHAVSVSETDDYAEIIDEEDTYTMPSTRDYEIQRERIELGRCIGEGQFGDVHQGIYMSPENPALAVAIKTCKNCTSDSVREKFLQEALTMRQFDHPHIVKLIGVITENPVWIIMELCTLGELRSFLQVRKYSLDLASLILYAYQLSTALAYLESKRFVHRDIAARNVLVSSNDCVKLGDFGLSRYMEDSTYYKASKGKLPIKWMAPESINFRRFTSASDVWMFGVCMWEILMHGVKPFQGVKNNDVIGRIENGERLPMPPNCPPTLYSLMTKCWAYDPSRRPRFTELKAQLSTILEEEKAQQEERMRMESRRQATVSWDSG

| Structure (SMILES) | IC50 ([1]; Mus musculus, 4T1) | IC50 (FAK) | IC50 [2] | IC50 [1] |
| --- | --- | --- | --- | --- |
| CNS(=O)(=O)c1ccccc1Nc1nc(Nc2cc(OCCN3CCOCC3)ccc2OC)ncc1Cl [Example 20-21] | 680 nM | 3000 nM | 26 nM | – |
| CNS(=O)(=O)c1ccccc1Nc1nc(Nc2cc(OCCN3CCN(C)CC3)ccc2OC)ncc1Cl [Example 20-22] | 190 nM | > 10000 nM | 8 nM | – |
| CNS(=O)(=O)c1ccccc1Nc1nc(Nc2cc(F)ccc2OC)ncc1Cl [Example 20-23] | 3000 nM | 490 nM | 30 nM | – |
| CNS(=O)(=O)c1ccccc1Nc1nc(Nc2ccc(F)cc2OC)ncc1Cl [Example 20-24] | 2000 nM | 480 nM | 19 nM | – |
| CNS(=O)(=O)c1ccccc1Nc1nc(Nc2ccc(OCC3CCN(C)CC3)cc2OC)ncc1Cl [Example 20-25] | 60 nM | 210 nM | 6.2 nM | – |
| CNS(=O)(=O)c1ccccc1Nc1nc(Nc2cc(OCC3CCN(C)CC3)ccc2OC)ncc1Cl [Example 20-26] | 270 nM | 760 nM | 5.3 nM | – |
| CNS(=O)(=O)c1ccccc1Nc1nc(Nc2cc(N3CCN(C(C)=O)CC3)ccc2OC)ncc1Cl [Example 20-34] | 120 nM | 1000 nM | 13 nM | – |
| CCC(C)NS(=O)(=O)c1ccccc1Nc1nc(Nc2ccc(N3CCN(C)CC3)cc2OC)ncc1Cl (stereo not drawn) [Example 21-1] | – | 70 nM | 1 nM | 190 nM |
| CCC(C)NS(=O)(=O)c1ccccc1Nc1nc(Nc2ccc(F)cc2OC)ncc1Cl (stereo not drawn) [Example 21-2] | > 10000 nM | 330 nM | 8.5 nM | – |
| CCC(C)NS(=O)(=O)c1ccccc1Nc1nc(Nc2ccc(OC3CCN(C)CC3)cc2OC)ncc1Cl (stereo not drawn) [Example 21-3] | 300 nM | 300 nM | 1.7 nM | – |
| CCC(C)NS(=O)(=O)c1ccccc1Nc1nc(Nc2ccc(OCCN3CCOCC3)cc2OC)ncc1Cl (stereo not drawn) [Example 21-4] | 300 nM | 50 nM | 1.8 nM | – |
| COc1ccc(F)cc1Nc1ncc(Cl)c(Nc2ccccc2S(=O)(=O)NCC(C)C)n1 [Example 22-1] | > 10000 nM | > 10000 nM | 43 nM | – |
| COc1cc(F)ccc1Nc1ncc(Cl)c(Nc2ccccc2S(=O)(=O)NCC(C)C)n1 [Example 22-2] | 3000 nM | 1000 nM | 26 nM | – |
| CCC(CC)NS(=O)(=O)c1ccccc1Nc1nc(Nc2ccc(OCC3CCCN(C)C3)cc2OC)ncc1Cl (stereo not drawn) [Example 23-5] | 590 nM | > 10000 nM | 1.9 nM | – |
| CCC(CC)NS(=O)(=O)c1ccccc1Nc1nc(Nc2ccc(N3CCOCC3)cc2OC)ncc1Cl [Example 23-6] | 570 nM | 1000 nM | 16 nM | – |
| CCC(CC)NS(=O)(=O)c1ccccc1Nc1nc(Nc2ccc(OCCN3CCOCC3)cc2OC)ncc1Cl [Example 23-8] | 490 nM | 300 nM | 6.7 nM | – |
| CCC(CC)NS(=O)(=O)c1ccccc1Nc1nc(Nc2ccc(OCCN3CCN(C)CC3)cc2OC)ncc1Cl [Example 23-9] | 280 nM | 200 nM | 2.1 nM | – |
| COc1cc(N2CCC(NC(C)=O)C2)ccc1Nc1ncc(Cl)c(Nc2ccccc2S(=O)(=O)NC2CCC2)n1 (stereo not drawn) [Example 24-3] | 1080 nM | 300 nM | 1 nM | – |
| CCCS(=O)(=O)c1ccccc1Nc1nc(Nc2ccc(N3CC(C)N(C(C)=O)C(C)C3)cc2OC)ncc1Cl (stereo not drawn) [Example 26-7] | 950 nM | 500 nM | 11 nM | – |
| CCCS(=O)(=O)c1ccccc1Nc1nc(Nc2ccc(N3CCN(C(=O)CC)CC3)cc2OC)ncc1Cl [Example 26-8] | 180 nM | 10 nM | 2.9 nM | – |
| CCCS(=O)(=O)c1ccccc1Nc1nc(Nc2ccc(N3CCN(C(=O)C(C)C)CC3)cc2OC)ncc1Cl [Example 26-9] | 220 nM | 40 nM | 2.3 nM | – |
| CCCS(=O)(=O)c1ccccc1Nc1nc(Nc2ccc(N3CCC[C@H](C(N)=O)C3)cc2OC)ncc1Cl [Example 26-12] | 190 nM | 200 nM | 3.7 nM | – |
| CCCS(=O)(=O)c1ccccc1Nc1nc(Nc2ccc(N3CCC[C@@H](C(N)=O)C3)cc2OC)ncc1Cl [Example 26-13] | 440 nM | 200 nM | 1.6 nM | – |
| CCCS(=O)(=O)c1ccccc1Nc1nc(Nc2ccc(NCCN3CCOCC3)cc2OC)ncc1Cl [Example 26-16] | 2000 nM | 320 nM | 9 nM | – |
| CCCS(=O)(=O)c1ccccc1Nc1nc(Nc2ccc(OCCN3CCCC3=O)cc2OC)ncc1Cl [Example 26-18] | – | 6000 nM | 1.3 nM | 1170 nM |
| CCCS(=O)(=O)c1ccccc1Nc1nc(Nc2ccc(C(=O)N3CCN(C(C)=O)CC3)cc2OC)ncc1Cl [Example 26-19] | 790 nM | 430 nM | 9.2 nM | – |

| Structure (SMILES) | IC50 ([1]; Mus musculus, 4T1) | IC50 (FAK) | IC50 [2] | IC50 [1] |
| --- | --- | --- | --- | --- |
| CCCS(=O)(=O)c1ccccc1Nc1nc(Nc2ccc(N3CCNC(=O)C3)cc2OC)ncc1Cl [Example 26-22] | – | 100 nM | < 1 nM | 280 nM |
| CCCS(=O)(=O)c1ccccc1Nc1nc(Nc2ccc(N3CCC(NC)C3)cc2OC)ncc1Cl (stereo not drawn) [Example 26-25] | – | 600 nM | < 1 nM | 730 nM |
| CCCS(=O)(=O)c1ccccc1Nc1nc(Nc2ccc(N3CCC(CO)CC3)cc2OC)ncc1Cl [Example 26-27] | – | 600 nM | 4.8 nM | 1490 nM |
| CCCS(=O)(=O)c1ccccc1Nc1nc(Nc2ccc(N3CCC(O)C3)cc2OC)ncc1Cl (stereo not drawn) [Example 26-28] | – | 500 nM | 2.1 nM | 1520 nM |
| CCCS(=O)(=O)c1ccccc1Nc1nc(Nc2ccc(N3CCC(N4CCCC4)CC3)cc2OC)ncc1Cl [Example 26-29] | 260 nM | 310 nM | < 1 nM | – |
| CCCS(=O)(=O)c1ccccc1Nc1nc(Nc2ccc(F)cc2OC)ncc1Cl [Example 26-30] | 760 nM | 1000 nM | 4.4 nM | – |
| CCS(=O)(=O)c1ccccc1Nc1nc(Nc2ccc(N3CCOCC3)cc2OC)ncc1Cl [Example 27-1] | 470 nM | 60 nM | 14 nM | – |
| CCS(=O)(=O)c1ccccc1Nc1nc(Nc2ccc(N3CCC(N4CCCCC4)CC3)cc2OC)ncc1Cl [Example 27-2] | 1100 nM | 500 nM | 5.1 nM | – |
| CCS(=O)(=O)c1ccccc1Nc1nc(Nc2ccc(-n3cncn3)cc2OC)ncc1Cl [Example 27-3] | 560 nM | > 10000 nM | 6.3 nM | – |
| CCS(=O)(=O)c1ccccc1Nc1nc(Nc2ccc(N3CCC(N4CCOCC4)CC3)cc2OC)ncc1Cl [Example 27-4] | 270 nM | 100 nM | 11 nM | – |
| CCS(=O)(=O)c1ccccc1Nc1nc(Nc2ccc(N3CCN(C(C)=O)CC3)cc2OC)ncc1Cl [Example 27-5] | 300 nM | 40 nM | 8.2 nM | – |
| CCS(=O)(=O)c1ccccc1Nc1nc(Nc2ccc(N3CCCC(C(N)=O)C3)cc2OC)ncc1Cl (stereo not drawn) [Example 27-6] | 310 nM | 80 nM | 1 nM | – |
| CCS(=O)(=O)c1ccccc1Nc1nc(Nc2ccc(CN3CCN(C)CC3)cc2OC)ncc1Cl [Example 27-7] | 570 nM | 2000 nM | 5.5 nM | – |
| CCS(=O)(=O)c1ccccc1Nc1nc(Nc2ccc(N3CCC[C@@H](C(N)=O)C3)cc2OC)ncc1Cl [Example 27-8] | 750 nM | 600 nM | 9.3 nM | – |
| CCS(=O)(=O)c1ccccc1Nc1nc(Nc2ccc(N3CCC(N4CCN(C)CC4)CC3)cc2OC)ncc1Cl [Example 27-9] | 360 nM | 500 nM | 4.2 nM | – |
| COc1cc(N2CCOCC2)ccc1Nc1ncc(Cl)c(Nc2ccccc2S(=O)(=O)C(C)C)n1 [Example 28-3] | 290 nM | 70 nM | 7.4 nM | – |
| COc1cc(-n2cncn2)ccc1Nc1ncc(Cl)c(Nc2ccccc2S(=O)(=O)C(C)C)n1 [Example 28-4] | 300 nM | 300 nM | 7.5 nM | – |
| Cc1cc(N2CCOCC2)ccc1Nc1ncc(Cl)c(Nc2ccccc2S(=O)(=O)C(C)C)n1 [Example 28-6] | 560 nM | 600 nM | 17 nM | – |
| COc1cc(N2CCC(N3CCCCC3)CC2)ccc1Nc1ncc(Cl)c(Nc2ccccc2S(=O)(=O)C(C)C)n1 [Example 28-8] | 370 nM | 400 nM | 4.6 nM | – |
| COc1cc(N2CCC(N3CCCC3)CC2)ccc1Nc1ncc(Cl)c(Nc2ccccc2S(=O)(=O)C(C)C)n1 [Example 28-9] | 360 nM | 500 nM | 3.1 nM | – |
| COCC1CCN(c2ccc(Nc3ncc(Cl)c(Nc4ccccc4S(=O)(=O)C(C)C)n3)c(OC)c2)CC1 [Example 28-10] | – | 3000 nM | 20 nM | 1850 nM |
| COc1cc(N2CCN(C(C)=O)CC2)ccc1Nc1ncc(Cl)c(Nc2ccccc2S(=O)(=O)C(C)C)n1 [Example 28-11] | – | 500 nM | 4.2 nM | 630 nM |
| COc1cc(N2CCN(C(C)C)CC2)ccc1Nc1ncc(Cl)c(Nc2ccccc2S(=O)(=O)C(C)C)n1 [Example 28-14] | 1440 nM | 100 nM | 3 nM | – |
| COc1cc(N2CCC(C(N)=O)CC2)ccc1Nc1ncc(Cl)c(Nc2ccccc2S(=O)(=O)C(C)C)n1 [Example 28-15] | 690 nM | 500 nM | 10 nM | – |
| COc1cc(N2CCC(OC)C2)ccc1Nc1ncc(Cl)c(Nc2ccccc2S(=O)(=O)C(C)C)n1 (stereo not drawn) [Example 28-17] | 1900 nM | 160 nM | 15 nM | – |
| COc1cc(N2CCC(OC)CC2)ccc1Nc1ncc(Cl)c(Nc2ccccc2S(=O)(=O)C(C)C)n1 [Example 28-18] | 2030 nM | > 10000 nM | 9.1 nM | – |
